From ChEMBL document CHEMBL4396974, “Synthesis and evaluation of a novel quinoline-triazole analogs for antitubercular properties via molecular hybridization approach” (Bioorg Med Chem Lett, 2019)
Converted amounts (≈) assume the structure as drawn. The source made the active and inactive calls. No cut-off for these calls is given here.

Each molecule was assayed on Mycobacterium tuberculosis variant bovis (assay: Antimycobacterial activity against Mycobacterium bovis assessed as 90 percent growth inhibition measured after 120 hrs by turbidometric analysis).
Type: functional

SMILES | MIC90
COc1nc2ccc(Br)cc2cc1C(c1ccccc1)n1cc(CO)nn1 (configuration not stated) | 131 µM (≈ 55.7 µg/mL)
CCCc1cn(C(c2ccccc2)c2cc3cc(Br)ccc3nc2OC)nn1 (configuration not stated) | 45.2 µM (≈ 19.8 µg/mL)
COc1nc2ccc(Br)cc2cc1[C@@H](c1ccccc1)[C@@](O)(CCN(C)C)c1cccc2ccccc12 [BEDAQUILINE] | 0.15 µM (≈ 0.0833 µg/mL)
CCOC(=O)c1cn(C(c2ccccc2)c2cc3cc(Br)ccc3nc2OC)nn1 (configuration not stated) | inactive
CCCCCc1cn(C(c2ccccc2)c2cc3cc(Br)ccc3nc2OC)nn1 (configuration not stated) | 80.9 µM (≈ 37.7 µg/mL)
COc1nc2ccc(Br)cc2cc1C(c1ccccc1)n1cc(CCCCCO)nn1 (configuration not stated) | 59.6 µM (≈ 28.7 µg/mL)
CCCCCCc1cn(C(c2ccccc2)c2cc3cc(Br)ccc3nc2OC)nn1 (configuration not stated) | 44.4 µM (≈ 21.3 µg/mL)
COc1nc2ccc(Br)cc2cc1C(c1ccccc1)n1cc(CCO)nn1 (configuration not stated) | 133 µM (≈ 58.3 µg/mL)
COc1nc2ccc(Br)cc2cc1C(c1ccccc1)n1cc(C2CC2)nn1 (configuration not stated) | inactive
CO[C@H]1/C=C/O[C@@]2(C)Oc3c(C)c(O)c4c(O)c(c(/C=N/N5CCN(C)CC5)c(O)c4c3C2=O)NC(=O)/C(C)=C\C=C\[C@H](C)[C@H](O)[C@@H](C)[C@@H](O)[C@@H](C)[C@H](OC(C)=O)[C@@H]1C [RIFAMPIN] | 2.2 µM (≈ 1.81 µg/mL)
CCCCc1cn(C(c2ccccc2)c2cc3cc(Br)ccc3nc2OC)nn1 (configuration not stated) | 50.2 µM (≈ 22.7 µg/mL)
COc1nc2ccc(Br)cc2cc1C(c1ccccc1)n1cc(CCCO)nn1 (configuration not stated) | inactive
CCCCCCCc1cn(C(c2ccccc2)c2cc3cc(Br)ccc3nc2OC)nn1 (configuration not stated) | 71.9 µM (≈ 35.5 µg/mL)
COc1nc2ccc(Br)cc2cc1C(c1ccccc1)n1cc(-c2ccc(F)cc2)nn1 (configuration not stated) | inactive
COc1nc2ccc(Br)cc2cc1C(c1ccccc1)n1cc(-c2ccc(OC(F)(F)F)cc2)nn1 (configuration not stated) | 41 µM (≈ 22.8 µg/mL)
COc1nc2ccc(Br)cc2cc1C(c1ccccc1)n1cc(-c2cccc(F)c2)nn1 (configuration not stated) | 31.4 µM (≈ 15.3 µg/mL)
COc1nc2ccc(Br)cc2cc1C(c1ccccc1)n1cc(-c2ccccc2F)nn1 (configuration not stated) | inactive
CCCCCCCCc1cn(C(c2ccccc2)c2cc3cc(Br)ccc3nc2OC)nn1 (configuration not stated) | 34.9 µM (≈ 17.7 µg/mL)
COc1nc2ccc(Br)cc2cc1C(c1ccccc1)n1cc(-c2ccc(Br)cc2)nn1 (configuration not stated) | 49 µM (≈ 27 µg/mL)
COc1nc2ccc(Br)cc2cc1C(c1ccccc1)n1cc(-c2ccccc2)nn1 (configuration not stated) | 161 µM (≈ 75.7 µg/mL)
COc1nc2ccc(Br)cc2cc1C(c1ccccc1)n1cc(-c2ccccc2C(F)(F)F)nn1 (configuration not stated) | 174 µM (≈ 93.8 µg/mL)
NNC(=O)c1ccncc1 [ISONIAZID] | 12.5 µM (≈ 1.72 µg/mL)
